We go through 26 compounds from patent US20220315621A1, “COMPOSITIONS AND METHODS FOR TREATING CNS DISORDERS” (priority 2017, published 2022).

Molecules are shown by their SMILES.

The first experiment concerns the target GABAA receptor (rat brain cortical membranes, [35S]-TBPS binding). The conditions noted are these: Table I-4; rat brain cortical membranes, 3 nM [35S]-TBPS, in the presence of 5 mM GABA.
With `COC[C@@]1(O)CC[C@H]2[C@@H](CC[C@@H]3[C@@H]2CC[C@]2(C)[C@@H](C(=O)Nc4ccccc4)CCC[C@@H]32)C1` [Compound I-27, (1S,4aS,4bR,6aS,8R,10aS,10bR,12aS)-8-hydroxy-8-(methoxymethyl)-12a-methyl-N-phenyloctadecahydrochrysene-1-carboxamide], the IC50 was in the range of 10 to 100 nM.

`COC[C@@]1(O)CC[C@H]2[C@@H](CC[C@@H]3[C@@H]2CC[C@]2(C)[C@@H](C(=O)NCc4ccccn4)CCC[C@@H]32)C1` [Compound I-26, (1S,4aS,4bR,6aS,8R,10aS,10bR,12aS)-8-hydroxy-8-(methoxymethyl)-12a-methyl-N-(pyridin-2-ylmethyl)octadecahydrochrysene-1-carboxamide]: the IC50 lay within 100 to 1000 nM.

Turning to `Cc1nnnn1CC(=O)[C@H]1CCC[C@H]2[C@@H]3CC[C@@H]4C[C@](C)(O)CC[C@]4(C)[C@H]3CC[C@]12C` [Compound I-20a, 1-((1S,4aS,4bR,6aR,8R,10aS,10bS,12aS)-8-hydroxy-8,10a,12a-trimethyloctadecahydrochrysen-1-yl)-2-(5-methyl-1H-tetrazol-1-yl)ethan-1-one], the IC50 lay in the range of 100 to 1000 nM.

Regarding `C[C@@H]1CC[C@H]2[C@@H]3CC[C@@H]4C[C@](C)(O)CC[C@@H]4[C@H]3CC[C@]2(C)C1=O` [Compound I-50, (2R,4aS,4bR,6aR,8R,10aS,10bR,12aS)-8-hydroxy-2,8,12a-trimethylhexadecahydrochrysen-1(2H)-one], the IC50 is 1000 to 10000 nM.

Take `CN(C[C@H]1CCC[C@H]2[C@@H]3CC[C@@H]4C[C@](C)(O)CC[C@@H]4[C@H]3CC[C@]12C)S(=O)(=O)c1ccccc1` [I-A8, N-(((1S,4aS,4bR,6aR,8R,10aS,10bR,12aS)-8-hydroxy-8,12a-dimethyloctadecahydrochrysen-l-yl)methyl)-N-methylbenzenesulfonamide]: the IC50 lay within 10 to 100 nM.

On to `COC[C@@]1(O)CC[C@H]2[C@@H](CC[C@@H]3[C@@H]2CC[C@]2(C)[C@H](Nc4ccc(F)cc4)CCC[C@@H]32)C1` [Compound I-23a, (2R,4aS,4bR,6aS,7R,10aS,10bR,12aS)-7-((4-fluorophenyl)amino)-2-(methoxymethyl)-6a-methyloctadecahydrochrysen-2-ol], for which the IC50 is 1000 to 10000 nM.

`CCN(CC)C(=O)[C@H]1CCC[C@H]2[C@@H]3CC[C@H]4C[C@@](O)(COC)CC[C@@H]4[C@H]3CC[C@]12C` [I-M3, (1S,4aS,4bR,6aS,8R,10aS,10bR,12aS)—N,N-diethyl-8-hydroxy-8-(methoxymethyl)-12a-methyloctadecahydrochrysene-1-carboxamide]: the IC50 fell in the range of 100 to 1000 nM.

With `C[C@@]1(O)CC[C@H]2[C@H](CC[C@@H]3[C@@H]2CC[C@]2(C)[C@@H](Nc4cccc(Cl)c4)CCC[C@@H]32)C1` [Compound I-9, (2R,4aS,4bR,6aS,7S,10aS,10bR,12aR)-7-((3-chlorophenyl)amino)-2,6a-dimethyloctadecahydrochrysen-2-ol], the IC50 was 10 to 100 nM.

Regarding `C[C@@]1(O)CC[C@H]2[C@H](CC[C@@H]3[C@@H]2CC[C@]2(C)[C@@H](Nc4ccc(F)cc4)CCC[C@@H]32)C1` [Compound I-11, (2R,4aS,4bR,6aS,7S,10aS,10bR,12aR)-7-((4-fluorophenyl)amino)-2,6a-dimethyloctadecahydrochrysen-2-ol], the IC50 lay within 100 to 1000 nM.

With `CC(=O)[C@@H]1CCC[C@H]2[C@@H]3CC[C@@H]4C[C@](C)(O)CC[C@@H]4[C@H]3CC[C@]12C` [I-D7a, 1-((1R,4aS,4bR,6aR,8R,10aS,10bR,12aS)-8-hydroxy-8,12a-dimethyloctadecahydrochrysen-1-yl)ethan-1-one], the IC50 is 100 to 1000 nM.

For the compound `COC[C@@]1(O)CC[C@H]2[C@@H](CC[C@@H]3[C@@H]2CC[C@]2(C)[C@@H](C(=O)NCc4ccccc4)CCC[C@@H]32)C1` [Compound I-25, (1S,4aS,4bR,6aS,8R,10aS,10bR,12aS)-N-benzyl-8-hydroxy-8-(methoxymethyl)-12a-methyloctadecahydrochrysene-1-carboxamide], the concentration for half-maximal inhibition (IC50) was in the range of 10 to 100 nM.

With `COC[C@]1(O)CC[C@H]2[C@H](CC[C@@H]3[C@@H]2CC[C@]2(C)[C@@H](OC)CCC[C@@H]32)C1` [I-N11a, (2S,4aS,4bR,6aS,7S,10aS,10bR,12aR)-7-methoxy-2-(methoxymethyl)-6a-methyloctadecahydrochrysen-2-ol], the IC50 was in the range of 1000 to 10000 nM.

Consider `CNC[C@H]1CCC[C@H]2[C@@H]3CC[C@@H]4C[C@](C)(O)CC[C@@H]4[C@H]3CC[C@]12C` [I-C5, (2R,4aS,4bR,6aS,7S,10aS,10bR,12aR)-2,6a-dimethyl-7-((methylamino)methyl)octadecahydrochrysen-2-ol], for which the IC50 was in the range of 1000 to 10000 nM.

Consider `CCOC[C@@]1(O)CC[C@H]2[C@H](CC[C@@H]3[C@@H]2CC[C@]2(C)[C@@H](C(=O)N4CCCC[C@@H]4C)CCC[C@@H]32)C1` [I-P9, ((1S,4aS,4bR,6aR,8R,10aS,10bR,12aS)-8-(ethoxymethyl)-8-hydroxy-12a-methyloctadecahydrochrysen-l-yl)((S)-2-methylpiperidin-1-yl)methanone], for which the IC50 was in the range of 100 to 1000 nM.

The experiment is the same for the next values; noted with them: Table I-5; rat brain cortical membranes, 3 nM [35S]-TBPS, in the presence of 5 mM GABA.
On to `C[C@@]1(O)CC[C@@]2(C)[C@H](CC[C@@H]3[C@@H]2CC[C@]2(C)[C@@H](C(=O)Cn4nccn4)C[C@@H]32)C1` [Compound I-107, 1-((1S,2aS,2bR,4aR,6R,8aS,8bS,10aS)-6-hydroxy-6,8a,10a-trimethylhexadecahydrocyclobuta[a]phenanthren-1-yl)-2-(2H-1,2,3-triazol-2-yl)ethan-1-one], for which the IC50 lay within 1000 to 10000 nM.

On to `C[C@@]1(O)CC[C@H]2[C@H](CC[C@@H]3[C@@H]2CC[C@]2(C)[C@@H](C(=O)Nc4ccccc4)C[C@@H]32)C1` [I-AA6, (1S,2aS,2bR,4aR,6R,8aS,8bR,10aS)-6-hydroxy-6,10a-dimethyl-N-phenylhexadecahydrocyclobuta[a]phenanthrene-1-carboxamide], for which the IC50 lay within 1000 to 10000 nM.

With `COC[C@@H]1C[C@H]2[C@@H]3CC[C@@H]4C[C@](C)(O)CC[C@@H]4[C@H]3CC[C@]12C` [Compound I-118, (1R,2aS,2bR,4aR,6R,8aS,8bR,10aS)-1-(methoxymethyl)-6,10a-dimethylhexadecahydrocyclobuta[a]phenanthren-6-ol], the IC50 lay within 1000 to 10000 nM.

`COC[C@@]1(O)CC[C@H]2[C@H](CC[C@@H]3[C@@H]2CC[C@]2(C)[C@@H](C(=O)N4CCCC[C@@H]4C)C[C@@H]32)C1` [I-AC9, ((1S,2aS,2bR,4aR,6R,8aS,8bR,10aS)-6-hydroxy-6-(methoxymethyl)-10a-methylhexadecahydrocyclobutaialphenanthren-1-yl)((S)-2-methylpiperidin-1-yl)methanone]: the 50% inhibitory concentration (IC50) fell in the range of 1000 to 10000 nM.

Regarding `CC(=O)[C@H]1C[C@H]2[C@@H]3CC[C@@H]4C[C@](C)(O)CC[C@@H]4[C@H]3CC[C@]12C` [I-AA8, 1-((1S,2aS,2bR,4aR,6R,8aS,8bR,10aS)-6-hydroxy-6,10a-dimethylhexadecahydrocyclobuta[a]phenanthren-1-yl)ethan-1-one], the IC50 is 100 to 1000 nM.

Consider `C[C@@]1(O)CC[C@H]2[C@H](CC[C@@H]3[C@@H]2CC[C@]2(C)[C@H](C(=O)Nc4ccccc4)C[C@@H]32)C1` [I-AA6a, (1R,2aS,2bR,4aR,6R,8aS,8bR,10aS)-6-hydroxy-6,10a-dimethyl-N-phenylhexadecahydrocyclobuta[a]phenanthrene-1-carboxamide], for which the IC50 lay in the range of 1000 to 10000 nM.

On to `CC(=O)[C@H]1C[C@H]2[C@@H]3CC[C@H]4C[C@](C)(O)CC[C@@H]4[C@H]3CC[C@]12C` [I-AD8, 1-((1S,2aS,2bR,4aS,6R,8aS,8bR,10aS)-6-hydroxy-6,10a-dimethylhexadecahydrocyclobuta[a]phenanthren-1-yl)ethan-1-one], for which the IC50 was 1000 to 10000 nM.

For `C[C@@]1(O)CC[C@@]2(C)[C@H](CC[C@@H]3[C@@H]2CC[C@]2(C)[C@@H](C(=O)Cn4cc(C#N)cn4)C[C@@H]32)C1` [Compound I-106, 1-(2-((1S,2aS,2bR,4aR,6R,8aS,8bS,10aS)-6-hydroxy-6,8a,10a-trimethylhexadecahydrocyclobuta[a]phenanthren-1-yl)-2-oxoethyl)-1H-pyrazole-4-carbonitrile], the 50% inhibitory concentration (IC50) lay in the range of 100 to 1000 nM.

As to `C[C@@]1(O)CC[C@H]2[C@H](CC[C@@H]3[C@@H]2CC[C@]2(C)[C@@H](C(=O)Cn4ccnn4)C[C@@H]32)C1` [I-AA12, 1-((1S,2aS,2bR,4aR,6R,8aS,8bR,10aS)-6-hydroxy-6,10a-dimethylhexadecahydrocyclobuta[a]phenanthren-1-yl)-2-(1H-1,2,3-triazol-1-yl)ethan-1-one], the IC50 lay in the range of 1000 to 10000 nM.

Staying with this experiment, now noted: Table I-6; rat brain cortical membranes, 3 nM [35S]-TBPS, in the presence of 5 mM GABA.
As to `CC(=O)[C@H]1CCCC[C@H]2[C@@H]3CC[C@@H]4C[C@](C)(O)CC[C@@H]4[C@H]3CC[C@]12C` [I-BA9a, 1-((2R,4aS,4bR,6aS,7S,11aS,11bR,13aR)-2-hydroxy-2,6a-dimethyloctadecahydro-1H-cyclohepta[a]phenanthren-7-yl)ethan-1-one], the 50% inhibitory concentration (IC50) lay in the range of 10 to 100 nM.

For `C[C@@]1(O)CC[C@H]2[C@H](CC[C@@H]3[C@@H]2CC[C@]2(C)C[C@@H](C(=O)Nc4ccccc4)CCC[C@@H]32)C1` [I-BC11, (2R,4aS,4bR,6aR,8S,11aS,11bR,13aR)-2-hydroxy-2,6a-dimethyl-N-phenyloctadecahydro-1H-cyclohepta[a]phenanthrene-8-carboxamide], the IC50 lay in the range of 1000 to 10000 nM.

Take `CC(=O)[C@@H]1CCC[C@H]2[C@@H]3CC[C@@H]4C[C@](C)(O)CC[C@@H]4[C@H]3CC[C@]2(C)C1` [I-BC14b]: the concentration for half-maximal inhibition (IC50) was in the range of 1000 to 10000 nM.

As a reminder, the IC50 is the concentration that inhibits the measured activity by half.
